Measured values published in PubChem BioAssay AID276 (DTP/NCI, 2004).
Values joined by “and” are separate entries in the source; they are usually repeats but may differ in a detail not shown here. Equal entries are not always repeated. Inconclusive results and toxic doses are left out. Rule for the calls: active = survival T/C of 150% or more; inactive = T/C below 125% in these data.

Tested on: B6C3F1 mice, Lewis lung carcinoma iv, survival T/C
Test: NCI In Vivo Anticancer Drug Screen. Data for tumor model Lewis Lung Carcinoma (intravenous) in B6C3F1 mice
Conditions: endpoint: median survival time, schedule: Q01DX009 (ip), higher = longer survival
Method in brief: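 Antitumor activity is assessed in tumor-bearing mice by comparing survival after compound treatment against vehicle-treated controls, reported as a T/C ratio.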

[1] = dose: 25.0 mg/kg/injection, vehicle: saline with Tween-80
[2] = dose: 12.5 mg/kg/injection, vehicle: saline
[3] = dose: 25.0 mg/kg/injection, vehicle: saline
[4] = dose: 50.0 mg/kg/injection, vehicle: saline
[5] = dose: 100.0 mg/kg/injection, vehicle: saline
[6] = dose: 12.5 mg/kg/injection, vehicle: saline with Tween-80
[7] = dose: 50.0 mg/kg/injection, vehicle: saline with Tween-80
[8] = dose: 100.0 mg/kg/injection, vehicle: saline with Tween-80
[9] = dose: 200.0 mg/kg/injection, vehicle: saline with Tween-80
[10] = dose: 12.5 mg/kg/injection, vehicle: suspension in saline
[11] = dose: 25.0 mg/kg/injection, vehicle: suspension in saline
[12] = dose: 50.0 mg/kg/injection, vehicle: suspension in saline
[13] = dose: 3.12 mg/kg/injection, vehicle: saline with Tween-80
[14] = dose: 6.25 mg/kg/injection, vehicle: saline with Tween-80
[15] = dose: 200.0 mg/kg/injection, vehicle: saline

Measured: T/C

CC(=O)NC(C=O)OCC=O (stereo unspecified)
inactive: dose: 6.25 mg/kg/injection, vehicle: water 111 % of control | dose: 12.5 mg/kg/injection, vehicle: water 104 % of control | dose: 25.0 mg/kg/injection, vehicle: water 97 % of control | dose: 50.0 mg/kg/injection, vehicle: water 97 % of control | dose: 100.0 mg/kg/injection, vehicle: water 91 % of control | dose: 200.0 mg/kg/injection, vehicle: water 103 % of control

O=C(C1CO1)C(Cl)(Cl)Cl (stereo unspecified)
inactive: dose: 1.5 mg/kg/injection, vehicle: saline 95 % of control | dose: 3.0 mg/kg/injection, vehicle: saline 92 % of control | dose: 6.0 mg/kg/injection, vehicle: saline 97 % of control | dose: 12.0 mg/kg/injection, vehicle: saline 95 % of control | [1] 108 % of control

CC1(C)CC23C4COC(=O)C2CCC1C3CC4=O (stereo unspecified)
inactive: dose: 3.0 mg/kg/injection, vehicle: DMSO 103 % of control | dose: 6.0 mg/kg/injection, vehicle: DMSO 97 % of control and 99 % of control | dose: 12.0 mg/kg/injection, vehicle: DMSO 100 % of control and 102 % of control | dose: 24.0 mg/kg/injection, vehicle: DMSO 95 % of control and 124 % of control | dose: 48.0 mg/kg/injection, vehicle: DMSO 103 % of control and 106 % of control | dose: 96.0 mg/kg/injection, vehicle: DMSO 102 % of control | dose: 192.0 mg/kg/injection, vehicle: DMSO 98 % of control

O=C1CCCCC1C(=O)C(F)(F)F (stereo unspecified)
inactive: dose: 12.5 mg/kg/injection, vehicle: saline + Tween-80 + alcohol 96 % of control | dose: 25.0 mg/kg/injection, vehicle: saline + Tween-80 + alcohol 111 % of control | dose: 50.0 mg/kg/injection, vehicle: saline + Tween-80 + alcohol 94 % of control

COc1cc2cc3cc4cc(OC)c(OC)cc4c(C)[n+]3cc2cc1OC (tested in a mixture with another compound)
inactive: [2] 112 % of control | [3] 106 % of control | [4] 117 % of control | [5] 120 % of control

O=C(Nc1ccccc1)c1c(O)[nH]c(=S)[nH]c1=O
inactive: [6] 103 % of control | [1] 106 % of control | [7] 115 % of control

O=S(=O)(N=N/C=C1\C=CC=CN1O)c1cccs1
inactive: [6] 111 % of control | [1] 103 % of control | [7] 103 % of control | [8] 107 % of control

CCN(CC)Cc1cc2[nH]c3c4ccc(Cl)cc4ncc3c2cc1OC
inactive: [6] 97 % of control | [1] 101 % of control | [7] 101 % of control

CCCCOCN(COCCCC)C(C)Cc1ccccc1 (stereo unspecified)
inactive: [6] 96 % of control | [1] 107 % of control | [7] 104 % of control | [8] 92 % of control | [9] 89 % of control

CCC(C(=O)O)C(=O)O.[NH-]CC1CCCC[N-]1.[Pt+2]
inactive: [2] 105 % of control | [10] 103 % of control | [3] 106 % of control | [11] 104 % of control | [4] 113 % of control | [12] 116 % of control | dose: 100.0 mg/kg/injection, vehicle: suspension in saline 123 % of control

CN=S(=O)(OCCCCCOS(=O)(=NC)c1ccccc1)c1ccccc1 (stereo unspecified)
inactive: [13] 101 % of control | [14] 105 % of control | [6] 118 % of control | [1] 108 % of control | [7] 122 % of control

CCOC(=O)c1cn(C)c2c1C(O)=C(C(=O)OC)CC(=O)N2
inactive: [1] 97 % of control | [7] 104 % of control | [8] 113 % of control | [9] 99 % of control | dose: 400.0 mg/kg/injection, vehicle: saline with Tween-80 105 % of control

Cn1/c2cc/c1=C(\c1ccc(S(=O)(=O)O)cc1)c1ccc([n-]1)/C(c1ccc(S(=O)(=O)O)cc1)=c1/cc/c([nH]1)=C(\c1ccc(S(=O)(=O)O)cc1)c1ccc([n-]1)/C=2c1ccc(S(=O)(=O)O)cc1.O.O=S(=O)(O)C(F)(F)F.[Cu+2]
inactive: dose: 6.25 mg/kg/injection, vehicle: saline 109 % of control | [2] 112 % of control | [3] 116 % of control | [4] 112 % of control

COc1cc2c3c(cccc3c1)C(=O)N(CCN(C)C)C2=O
inactive: dose: 5.0 mg/kg/injection, vehicle: saline with Tween-80 101 % of control | dose: 10.0 mg/kg/injection, vehicle: saline with Tween-80 110 % of control | dose: 20.0 mg/kg/injection, vehicle: saline with Tween-80 122 % of control | dose: 40.0 mg/kg/injection, vehicle: saline with Tween-80 101 % of control | dose: 80.0 mg/kg/injection, vehicle: saline with Tween-80 119 % of control

CCCCCCCCCCCCCC#CC(=O)O
inactive: [13] 97 % of control | [14] 93 % of control | [6] 101 % of control | [1] 89 % of control | [7] 93 % of control

O=C(O)C(CSC(c1ccccc1)(c1ccccc1)c1ccccc1)N=Cc1cccs1 (stereo unspecified)
inactive: [10] 104 % of control | [11] 100 % of control | [12] 105 % of control

O=C(CCCCCCC(=O)ON1C(=O)CCC1=O)ON1C(=O)CCC1=O
inactive: [1] 94 % of control | [7] 94 % of control | [8] 93 % of control

Cc1cc(O)c2c(c1O)C(=O)C13C(=C2O)C(=O)C2C(O)C1C1C(O)C3C(=O)C3=C(O)c4c(O)cc(C)c(O)c4C(=O)C321 (stereo unspecified)
inactive: dose: 0.78 mg/kg/injection, vehicle: saline with Tween-80 100 % of control | dose: 1.56 mg/kg/injection, vehicle: saline with Tween-80 91 % of control | [13] 90 % of control

CCOC(=O)C(N)CSC(=O)NC (stereo unspecified)
inactive: [2] 98 % of control | [3] 103 % of control | [4] 93 % of control | [5] 101 % of control | [15] 109 % of control

N#C[C@H](OC1OC(COC2OC(CO)C(O)C(O)C2O)C(O)C(O)C1O)c1ccccc1 (stereo partly specified)
inactive: [3] 111 % of control | [4] 95 % of control | [5] 95 % of control | [15] 92 % of control | dose: 400.0 mg/kg/injection, vehicle: saline 97 % of control | dose: 800.0 mg/kg/injection, vehicle: saline 101 % of control
